Experimental data reported in PMC8911181, “A Novel CDK4/6 and PARP Dual Inhibitor ZC-22 Effectively Suppresses Tumor Growth and Improves the Response to Cisplatin Treatment in Breast and Ovarian Cancer” (International Journal of Molecular Sciences, 2022).

Key:
[1] = system: MDA-MB-231 xenograft tumors; test: Breast cancer xenograft mouse model, tumor growth; type: in vivo, mice
Description: Six-week-old female athymic nude mice (Homozygous) were purchase from Vital River Laboratories (Beijing, China) and maintained under the guidelines for laboratory animals of Nankai university (NKU). Mice were injected subcutaneously with 2 × 10^6 MDA-MB-231 or 8 × 10^6 OVCAR5 cells. When tumors were 50–100 mm^3 in size, the mice were randomly grouped and treated intraperitoneal (i.p.) with 50 mg/kg of Olaparib, 50 mg/kg of LY2835219, 50 mg/kg of ZC-22, or 1.5 mg/kg of cisplatin alone or in combinations or with the vehicle (PBS containing 10% DMSO and 10% 2-hydroxy-propyl-β-cyclodextrin) every 2 days. Tumor volume was measured every 3–4 days, which was calculated as Length × Width^2/2. At the end of the study, tumor and major organ tissues were harvested by surgery. For histopathological analysis, tissue samples were washed with PBS, fixed in 4% paraformaldehyde (PFA), paraffin-embedded, and sectioned into 7 μm thickness. For Western blot analysis, the tissue samples were dissociated by a tissue-tearor in RIPA buffer containing 1×protease and phosphatase inhibitors.
Figure 4 ZC-22 suppresses growth of breast cancer xenografts. Female NOD-SCID mice were injected subcutaneously with 2 × 10^6 of MDA-MB-231 cells and treated ip daily with 50 mg/kg of Olaparib (OLA) or LY2835219 (LY-2) alone or together (OLA + LY-2) or with ZC-22 alone starting on day 10 after injection of cells when tumors were 50–80 mm^3 in size. Tumor volumes were measured every 2–3 days. […] (B,C) Pictures of (B) and quantification of the size of (C) the MDA-MB-231 xenograft tumors at the end points. […] (E) Quantification of Ki67 (Left) and γH2A.X (Right)-positive cells in immunohistochemical staining of the xenograft tumor tissues. […]
Figure 6 ZC-22 sensitizes breast cancer cells to cisplatin treatment in vivo. […] Tumor volumes were measured every 2–3 days. […] (B,C) Pictures (B) and quantification of the size (C) of the MDA-MB-231 xenograft tumors at the end points. […] (E) Quantification of Ki67 (left) and γH2A.X (right)-positive cells in immunohistochemical staining of the xenograft tumor tissues. […]

[2] = Body weight and histological analysis (H&E) of major organs, MDA-MB-231 tumor-bearing mice; type: in vivo; settings: ZC-22 monotherapy 50 mg/kg ip
Description: To detect the safety of ZC-22 monotherapy or combination therapy, sections of mouse heart, liver, spleen, lung, and kidney tissues were stained with hematoxylin and eosin (H&E) and then analyzed by microscopy.
Figure S3. ZC-22 inhibits signaling of CDK4/6 and PARP in xenograft tumors of breast cancer. Female NOD-SCID mice were injected subcutaneously with 2×10^6 of MDA-MB-231 cells and treated ip daily with 50 mg/kg of Olaparib (OLA) or LY2835219 (LY-2) alone or together (OLA+LY-2), or ZC-22 starting on day 10 after injection of cells when tumors were 50–80 mm3 in size. Representative pictures of (A) and quantification of percentage of (B) phosphorylated Rb (p-Rb)-positive cells in immunohistochemical staining of the MDA-MB-231 xenograft tumor tissues. Values are means ± SEM, n = 6. ns, not significant, and *** p < 0.001 in the unpaired t-test. (C) Western blot analysis of p-Rb (Left) and PAR (Right) in the MDA-MB-231 xenograft tumor tissues with indicated treatment.
(D) Body weights of MDA-MB-231 tumor burden mice with indicated treatment. Values are means ± SD, n = 6. ns, not significant in unpaired t-test. (E) H&E staining of the heart, liver, spleen, lung, and kidney tissues of tumor-bearing mice treated with DMSO or ZC-22, showing the lack of toxicity of ZC-22 treatment.
Figure S4. ZC-22 increases the sensitivity of breast and ovarian cancer cells to cisplatin. […]

## Cc1nc2c(F)cc(-c3nc(Nc4ccc(N5CCN(C(=O)c6cc(Cc7n[nH]c(=O)c8ccccc78)ccc6F)CC5)cn4)ncc3F)cc2n1C(C)C [ZC-22, 4-(4-fluoro-3-(4-(6-((5-fluoro-4-(4-fluoro-1-isopropyl-2-methyl-1H-benzo[d]imidazole-6-yl)pyrimidin-2-yl)amino)pyridin-3-yl)piperazine-1-carbonyl)benzyl)phthalazin-1(2H)-one]
[1]; 1.5 mg/kg cisplatin or 50 mg/kg ZC-22 ip alone or together
  growth of the xenograft tumors: effectively inhibit growth of the xenograft tumors
[1]; 50 mg/kg ip, Olaparib and LY2835219 alone or together, or ZC-22
  anti-tumor efficacy (tumor growth): even higher therapeutic efficacy than combined Olaparib and Abemaciclib therapy
[2]
  toxicity (body weight, histology of major organs): no obvious toxicity
